Series [1] deals with U251 tumours. Briefly: Mice with implanted U251 tumours, time to progression (Example 3). The format is in vivo. The conditions noted are these: 60 mg/kg iv days 1, 8 and 15, FIG. 8. On the procedure:
The above procedure was followed in similar manner using the cell lines U87G and U251G. Once again, EDO-S101 (60 mg/kg) was administered intravenously via the tail vein, but in these experiments it was administered at days 1, 8 and 15. In place of bendamustime, TMZ was administered as a comparison at 16 mg/kg for 5 consecutive days, po. The mice were sacrificed after 28 days.

Series [2] in a line: CNS pharmacokinetics by blood and brain-ventricle microdialysis, CE-UV. The conditions noted are these: Sprague-Dawley, rat; for Cmax: intravenous, 40 mg/kg tail vein injection; for AUC(0-t): read-out: AUC (0-12) (converted); for half-life: iv, 40 mg/kg. The format is in vivo, Sprague-Dawley Rats. The protocol:
CNS pharmacokinetics was determined in rats after a tail vein injection of EDO-S101 at 40 mg/kg. Microdialysate samples were collected from the blood and a ventricle of the brain via microdialysis probes at 18 time intervals. The drug concentrations in these samples were determined by capillary electrophoresis with UV detection (CE-UV) followed by calculations for various pharmacokinetic parameters.
Six rats were anesthetized with gasiform isoflurane (1% isoflurane in a mixture of 20% oxygen and 80% nitrogen gas) and immobilized in a stereotaxic frame (KOPF Instruments, Tujunga, CA). Anaesthesia was maintained during the entire procedure. Each guide cannula (CMA Microdialysis Inc., Acton, MA) was stereotactically implanted into the lateral ventricle (AP -0.9, L 1.6, V 3.4, relative to bregma and skull), then secured to the skull by screws and dental cement. Following surgery, each rat was housed individually with food and water ad libitum for 3 days for recovery from cannulation surgery. Microdialysis experiments were carried out on conscious, freely moving rat. On the day of the experiment, the stylet in the guide cannula was replaced with the microdialysis probe (CMA/11 with 4 mm membrane, CMA Microdialysis Inc., Acton, MA) and a vascular microdialysis probe (CMA/20 with 4 mm membrane, CMA Microdialysis Inc, Acton, MA)) was implanted into the jugular vein. The probes had inlet tubes connected to syringes to deliver artificial cerebrospinal fluid (146 mM NaCl, 1.2 mM CaCl2, 3 mM KCI, 1 mM MgCl2, 1.9 mM Na2HPO4, 0.1 mM NaH2PO4, pH 7.4) into the ventricle and Dulbecco’s phosphate-buffered saline (D-PBS) into the blood at 0.5 µl/min flow rate. The outlet tubes were connected to a microfraction collector for collecting the microdailysates at 4° C. The rats were allowed to recover for at least 24 hours prior to dosing. Eighteen samples were collected over 3 hours after EDO-S101 injection (intravenously). All samples were applied to the capillary electrophoresis with UV detection (CE-UV) for the determination of concentration of EDO-S101 in the cerebrospinal fluid (CSF) and blood. The rats were sacrificed using CO2 inhalation after the experiment. The position of the probe was verified by visual inspection at the end of each experiment.
EDO-S101 in the microdialysate were measured by CE-UV (Agilent 3D CE). Briefly, the capillaries were preconditioned with 1 M sodium hydroxide for 2 min, water for 2 min and running buffer [100 mmol/l solution of ammonium acetate (adjust to pH 3.1 with acetic acid)-acetonitrile (50:50, v/v) ] for 3 min. The samples were injected at a pressure of 0.7 psi for 5 s and the injection volume was approximately 5 nl. After injection, EDO-S101 was separated in a fused silica capillary of 50 µm I.D. and 50/65 cm length (effective length/total length) under 15 kv and 25° C. The absorbance from EDO-S101 was detected with UV at […]. […].
To perform a statistical analysis on the data, a two-way repeated measures ANOVA followed by Tukey’s test was used. P<0.05 was considered significant. CNS penetration is determined as the ratio of CSF and blood area under the curve (AUC).

Series [3] relates to T98G. Put plainly: Clonogenic survival with radiotherapy, T98G. The series is classed as cell-based. The conditions noted are these: 2.5 µM or 5 µM, 24 hr, plus radiotherapy, FIG. 10. The protocol: (§1) In a first experiment, U251, U87 and T98G cell lines were treated with radiotherapy alone or with radiotherapy and EDO-S101.
(§2) For clonogenic survival, exponentially growing cells (70% confluence) were cultured in regular media and treated with EDO-S101 at the appropriate concentrations, or vehicle (final DMSO concentration of 0.1%) for 24 hr. Tumour cell irradiation was done using a 6 MV linear accelerator Elekta Synergy using a clinically calibrated irradiation field of 30 × 30 cm. Two cm thick plates of perspex were positioned above and below the cell culture flasks completely filled with medium to compensate for the build-up effect. Non-irradiated controls were handled identically to the irradiated cells with the exception of the radiation exposure. […] Colonies containing more than 50 cells were counted. The plating efficiency (PE) was calculated as the number of colonies observed/the number of cell plated. The surviving fraction was calculated as the number of colonies formed in the treated dishes compared with the number formed in the control. The survival curves were analyzed using SPSS (Chicago, IL) statistical software by means of a fit of the data by a weighted, stratified, linear regression, according to the linear-quadratic formula: S(D)/S(O)=exp-(aD+bD2).

In series [4] the test system is U87. Briefly: Clonogenic survival with radiotherapy, U87. The series is classed as cell-based. The conditions noted are these: 2.5 µM or 5 µM, 24 hr, plus radiotherapy, FIG. 10. The protocol:
as §1, §2

Where [5] appears, read: CSF (brain lateral ventricle microdialysate), Brain (CSF), 40 mg/kg iv.
The mark [6] stands for this setting: blood (jugular vein microdialysate), Blood, 40 mg/kg iv.

Read-outs that look alike come from different tables or passages of the source.

Usually Cmax stands for the peak of the concentration-time curve. For orientation: Tmax means the time from dosing to the highest level. Broadly, the half-life is how long it takes for the measured level to halve. Low values mean rapid decline, high ones slow decline. As to `Cn1c(CCCCCCC(=O)NO)nc2cc(N(CCCl)CCCl)ccc21` [EDO-S101], in series [1], the “time to progression (TTP) versus control and TMZ” value was “significantly longer”. For the same compound, the Cmax was determined as 11.2 µM in series [2] (CSF (brain lateral ventricle microdialysate), Brain (CSF)) and 184 µM in series [2] (blood (jugular vein microdialysate), Blood). Besides, the Tmax in series [2] (setting [5]) is 5.67 min; in series [2] (setting [6]) it was 2.33 min. The AUC(0-t) in series [2] (setting [5]) is 2.27 µM·h; in series [2] (setting [6]), 13.7 µM·h. The results for the half-life in series [2] (setting [5]) and in series [2] (setting [6]) were about 9 min and about 6 min, respectively. Further, the Kp in series [2] (ratio of CSF and blood AUC, 40 mg/kg iv, read-out: AUC ratio (Brain:Blood), CNS penetration) was found to be 0.165. Moreover, the “% survival rate (surviving fraction) with radiotherapy versus radiotherapy alone” value in series [3] and in series [4] was “considerably reduced” each time.

The values are drawn from patent US20230049350A1, “COMPOUNDS FOR TREATING BRAIN CANCER” (Purdue Pharmaceutical Products L.P., priority 2014, published 2023).
